Source: patent US20030004172A1, “Fused pyrimidinone matrix metalloproteinase inhibitors” (priority 2001, published 2003)

Target: MMP-13CD (catalytic domain of collagenase-3) (Homo sapiens, UniProt P45452)
Experiment: Thiopeptolide substrate hydrolysis inhibition assay, MMP-13CD
Format: biochemical
Conditions: Table I; thiopeptolide substrate, HEPES pH 7.0, 22° C.; read-out: MMP-13CD IC50
Text: Thiopeptolide substrates show virtually no decomposition or hydrolysis at or below neutral pH in the absence of a matrix metalloproteinase enzyme.

Row | SMILES | IC50 [µM]
1 | COc1cccc(CNC(=O)c2cc3c(=O)n(CC(=O)C(CC(=O)OC(C)(C)C)NC(=O)OCc4ccccc4)c(=O)n(C)c3s2)c1 (stereo not drawn) [Example 299] | 30
2 | COC(=O)c1cc2c(=O)n(Cc3ccccc3)c(=O)n(C)c2s1 [Example 300, 3-Benzyl-1-methyl-2,4-dioxo-1,2,3,4-tetrahydro-thieno[2,3-d]pyrimidine-6-carboxylic acid methyl ester] | > 100
3 | Cc1c(C(=O)OCc2ccccc2)sc2[nH]c(=O)n(Cc3ccc(Br)cc3)c(=O)c12 [Example 301, 3-(4-Bromo-benzyl)-5-methyl-2,4-dioxo-1,2,3,4-tetrahydro-thieno[2,3-d]pyrimidine-6-carboxylic acid benzyl ester] | > 100
4 | Cc1c(C(=O)OCc2ccccc2)sc2[nH]c(=O)n(Cc3ccc(F)cc3)c(=O)c12 [Example 302, 3-(4-Fluoro-benzyl)-5-methyl-2,4-dioxo-1,2,3,4-tetrahydro-thieno[2,3-d]pyrimidine-6-carboxylic acid benzyl ester] | 30
5 | Cn1c(=O)n(Cc2ccccc2)c(=O)c2cc(C(=O)OCc3cc4ccccc4s3)sc21 [Example 304, 3-Benzyl-1-methyl-2,4-dioxo-1,2,3,4-tetrahydro-thieno[2,3-d]pyrimidine-6-carboxylic acid benzo[b]thiophen-2-ylmethyl ester] | 3.1
6 | Cn1ccc2cc(COC(=O)c3cc4c(=O)n(Cc5ccccc5)c(=O)n(C)c4s3)ccc21 [Example 305, 3-Benzyl-1-methyl-2,4-dioxo-1,2,3,4-tetrahydro-thieno[2,3-d]pyrimidine-6-carboxylic acid 1-methyl-1H-indol-5-ylmethyl ester] | 46.7
7 | Cn1c(=O)n(Cc2ccc3c(c2)OCO3)c(=O)c2cc(C(=O)OCc3ccccc3)sc21 [Example 307, 3-1,3-Benzodioxol-5-ylmethyl-1-methyl-2,4-dioxo-1,2,3,4-tetrahydro-thieno[2,3-d]pyrimidine-6-carboxylic acid benzyl ester] | 0.0052
8 | Cn1c(=O)n(Cc2ccncc2)c(=O)c2cc(C(=O)OCc3ccccc3)sc21 [Example 308, 1-Methyl-2,4-dioxo-3-pyridin-4-ylmethyl-1,2,3,4-tetrahydro-thieno[2,3-d]pyrimidine-6-carboxylic acid benzyl ester] | 0.00715
9 | Cn1c(=O)n(Cc2ccc(C(C)(C)C)cc2)c(=O)c2cc(C(=O)OCc3ccccc3)sc21 [Example 309, 3-(4-tert-Butyl-benzyl)-1-methyl-2,4-dioxo-1,2,3,4-tetrahydro-thieno[2,3-d]pyrimidine-6-carboxylic acid benzyl ester] | 0.056
10 | Cc1c(C(=O)OCc2ccccc2)sc2[nH]c(=O)n(Cc3ccc(Cl)c(Cl)c3)c(=O)c12 [Example 310, 3-(3,4-Dichloro-benzyl)-5-methyl-2,4-dioxo-1,2,3,4-tetrahydro-thieno[2,3-d]pyrimidine-6-carboxylic acid benzyl ester] | 30
11 | Cn1c(=O)n(Cc2ccc(OC(F)(F)F)cc2)c(=O)c2cc(C(=O)OCc3ccccc3)sc21 [Example 311, 1-Methyl-2,4-dioxo-3-(4-trifluoromethoxy-benzyl)-1,2,3,4-tetrahydro-thieno[2,3-d]pyrimidine-6-carboxylic acid benzyl ester] | 0.0845
12 | Cn1c(=O)n(Cc2ccc3ccccc3c2)c(=O)c2cc(C(=O)OCc3ccccc3)sc21 [Example 312, 1-Methyl-3-naphthalen-2-ylmethyl-2,4-dioxo-1,2,3,4-tetrahydro-thieno[2,3-d]pyrimidine-6-carboxylic acid benzyl ester] | 0.0275
13 | Cn1c(=O)n(Cc2ccc(C#N)cc2)c(=O)c2cc(C(=O)OCc3ccccc3)sc21 [Example 313, 3-(4-Cyano-benzyl)-1-methyl-2,4-dioxo-1,2,3,4-tetrahydro-thieno[2,3-d]pyrimidine-6-carboxylic acid benzyl ester] | 0.00645
14 | Cn1c(=O)n(Cc2ccccc2)c(=O)c2cc(C(=O)OCc3ccc4occc4c3)sc21 [Example 314, 3-Benzyl-1-methyl-2,4-dioxo-1,2,3,4-tetrahydro-thieno[2,3-d]pyrimidine-6-carboxylic acid benzofuran-5-ylmethyl ester] | 0.0185
15 | COc1cc(Cn2c(=O)c3cc(C(=O)OCc4ccccc4)sc3n(C)c2=O)cc(OC)c1 [Example 315, 3-(3,5-Dimethoxy-benzyl)-1-methyl-2,4-dioxo-1,2,3,4-tetrahydro-thieno[2,3-d]pyrimidine-6-carboxylic acid benzyl ester] | 0.0205
16 | COc1ccc(CCNC(=O)c2cc3c(=O)n(Cc4ccccc4)c(=O)n(C)c3s2)cc1OC [Example 320, 3-Benzyl-1-methyl-2,4-dioxo-1,2,3,4-tetrahydro-thieno[2,3-d]pyrimidine-6-carboxylic acid[2-(3,4-dimethoxy-phenyl)-ethyl]-amide] | > 100
17 | Cn1c(=O)n(Cc2ccccc2)c(=O)c2cc(C(=O)NCc3ccc(N)cc3)sc21 [Example 321, 3-Benzyl-1-methyl-2,4-dioxo-1,2,3,4-tetrahydro-thieno[2,3-d]pyrimidine-6-carboxylic acid 4-amino-benzylamide] | > 100

Row | SMILES | IC50 [µM]
18 | Cn1c(=O)n(Cc2ccccc2)c(=O)c2cc(C(=O)NCCc3ccc(Cl)cc3)sc21 [Example 322, 3-Benzyl-1-methyl-2,4-dioxo-1,2,3,4-tetrahydro-thieno[2,3-d]pyrimidine-6-carboxylic acid[2-(4-chloro-phenyl)-ethyl]-amide] | > 100
19 | Cn1c(=O)n(Cc2ccccc2)c(=O)c2cc(C(=O)NCc3ccccc3-c3ccccc3)sc21 [Example 323, 3-Benzyl-1-methyl-2,4-dioxo-1,2,3,4-tetrahydro-thieno[2,3-d]pyrimidine-6-carboxylic acid (biphenyl-2-ylmethyl)-amide] | > 100
20 | COc1ccc(CNC(=O)c2cc3c(=O)n(Cc4ccccc4)c(=O)n(C)c3s2)cc1OC [Example 324, 3-Benzyl-1-methyl-2,4-dioxo-1,2,3,4-tetrahydro-thieno[2,3-d]pyrimidine-6-carboxylic acid 3,4-dimethoxy-benzylamide] | > 100
21 | Cn1c(=O)n(Cc2ccccc2)c(=O)c2cc(C(=O)NCCc3ccncc3)sc21 [Example 325, 3-Benzyl-1-methyl-2,4-dioxo-1,2,3,4-tetrahydro-thieno[2,3-d]pyrimidine-6-carboxylic acid (2-pyridin-4-yl-ethyl)-amide] | > 100
22 | CCOc1cccc(CCNC(=O)c2cc3c(=O)n(Cc4ccccc4)c(=O)n(C)c3s2)c1 [Example 327, 3-Benzyl-1-methyl-2,4-dioxo-1,2,3,4-tetrahydro-thieno[2,3-d]pyrimidine-6-carboxylic acid[2-(3-ethoxy-phenyl)-ethyl]-amide] | 2.8
23 | Cn1c(=O)n(Cc2ccccc2)c(=O)c2cc(C(=O)NCc3ccc(F)c(Cl)c3)sc21 [Example 328, 3-Benzyl-1-methyl-2,4-dioxo-1,2,3,4-tetrahydro-thieno[2,3-d]pyrimidine-6-carboxylic acid 3-chloro-4-fluoro-benzylamide] | 2.7
24 | Cn1c(=O)n(Cc2ccccc2)c(=O)c2cc(C(=O)NCc3ccc(Cl)cc3Cl)sc21 [Example 329, 3-Benzyl-1-methyl-2,4-dioxo-1,2,3,4-tetrahydro-thieno[2,3-d]pyrimidine-6-carboxylic acid 2,4-dichloro-benzylamide] | 30
25 | CC(CNC(=O)c1cc2c(=O)n(Cc3ccccc3)c(=O)n(C)c2s1)c1ccccc1 (stereo not drawn) [Example 330, 3-Benzyl-1-methyl-2,4-dioxo-1,2,3,4-tetrahydro-thieno[2,3-d]pyrimidine-6-carboxylic acid (2-phenyl-propyl)-amide] | > 100
26 | COc1cc(CNC(=O)c2cc3c(=O)n(Cc4ccccc4)c(=O)n(C)c3s2)cc(OC)c1OC [Example 331, 3-Benzyl-1-methyl-2,4-dioxo-1,2,3,4-tetrahydro-thieno[2,3-d]pyrimidine-6-carboxylic acid 3,4,5-trimethoxy-benzylamide] | > 100
27 | Cn1c(=O)n(Cc2ccccc2)c(=O)c2cc(C(=O)NCc3cccc(Cl)c3)sc21 [Example 332, 3-Benzyl-1-methyl-2,4-dioxo-1,2,3,4-tetrahydro-thieno[2,3-d]pyrimidine-6-carboxylic acid 3-chloro-benzylamide] | 1
28 | COc1cc(CNC(=O)c2cc3c(=O)n(Cc4ccccc4)c(=O)n(C)c3s2)cc(OC)c1 [Example 333, 3-Benzyl-1-methyl-2,4-dioxo-1,2,3,4-tetrahydro-thieno[2,3-d]pyrimidine-6-carboxylic acid 3,5-dimethoxy-benzylamide] | > 100
29 | COc1cccc(CNC(=O)c2cc3c(=O)n(Cc4ccccc4)c(=O)n(C)c3s2)c1OC [Example 334, 3-Benzyl-1-methyl-2,4-dioxo-1,2,3,4-tetrahydro-thieno[2,3-d]pyrimidine-6-carboxylic acid 2,3-dimethoxy-benzylamide] | > 100
30 | Cn1c(=O)n(Cc2ccccc2)c(=O)c2cc(C(=O)NCc3cccc(C(F)(F)F)c3)sc21 [Example 335, 3-Benzyl-1-methyl-2,4-dioxo-1,2,3,4-tetrahydro-thieno[2,3-d]pyrimidine-6-carboxylic acid 3-trifluoromethyl-benzylamide] | 0.25
31 | COc1ccccc1CNC(=O)c1cc2c(=O)n(Cc3ccccc3)c(=O)n(C)c2s1 [Example 336, 3-Benzyl-1-methyl-2,4-dioxo-1,2,3,4-tetrahydro-thieno[2,3-d]pyrimidine-6-carboxylic acid 2-methoxy-benzylamide] | 30
32 | Cc1ccccc1CNC(=O)c1cc2c(=O)n(Cc3ccccc3)c(=O)n(C)c2s1 [Example 337, 3-Benzyl-1-methyl-2,4-dioxo-1,2,3,4-tetrahydro-thieno[2,3-d]pyrimidine-6-carboxylic acid 2-methyl-benzylamide] | > 100
33 | Cn1c(=O)n(Cc2ccccc2)c(=O)c2cc(C(=O)NCCCCc3ccccc3)sc21 [Example 338, 3-Benzyl-1-methyl-2,4-dioxo-1,2,3,4-tetrahydro-thieno[2,3-d]pyrimidine-6-carboxylic acid (4-phenyl-butyl)-amide] | > 100
